Patent publication US4840941A, “Method for inhibiting infection of human T-cells” (Kabushiki Kaisha Ueno Seiyaku Oyo Kenkyujo, priority 1986, dated 1989)

How the values were obtained:
[1] = test system: Friend leukemia virus (F-MuLV); assay: Anti-Friend leukemia virus activity, XC-plaque assay, Procedure 1; assay type: cell-based; conditions: for Number of plagues per dish: control 168
Protocol: (§1) Anti-FMuLV activity of dextram sulfate (molecular weight: 7000-8000, S-content: 17-20%) was determined by a XC-plaque assay method. BALB3T3 cells were cultured in adhesive form in a 35 mm-dish at 5×10^4 cells/dish (2 ml). After removing the culture medium, a fresh medium with or without indicating concentrations of the test substance (1 ml each) and 0.2 ml of the virus preparation were charged, and the cells were cultured overnight. On the following day, the culture media were replaced with those (2 ml) containing or not containing the above substances, the incubation was continued for three additional days to progress the infection and replication of the virus. After the removal of the medium, the further progression of viral replication was stopped by UV irradiation. To this dish, the suspension of XC-cells (2 ml) was added and cultured for three days and the plaque formation produced by the virus particle induced cell-fusion, was observed.

[2] = test system: Friend leukemia virus (F-MuLV); assay: Anti-Friend leukemia virus activity, XC-plaque assay, Procedure 2; assay type: cell-based; conditions: for Number of plaques per dish: control 35
Protocol: as §1
Procedure 1 was repeated except that after adsorption of the virus in the medium without DS, the non-adsorbed viruses were removed and the culture was carried out in the medium (2 ml) containing or not containing DS.

HTLV-III = assay: Anti-AIDS activity, infected cell rate of MT-4 cells infected with HTLV-III at 6th day; assay type: cell-based; conditions: for anti-AIDS virus activity: MT-4 cells, HTLV-III
Protocol: To MT-4 cells (30×10^4 /ml) cultured in RPMI-1640 medium containing 10% bovine serum, was inoculated HTLV-III, and the suspension was incubated at 37° C. for 1 hour to cause the adsorption of the virus. The cell:virus ratio was 500:1. The cells were then washed, and cultured with or without various doses of the test substances (same as those of Example 1) at 37° C. under 5% CO2 for 3 days, after which cell growth, viability, and percentage of infected cells were recorded. The infected cells were distinguished from the uninfected cells by indirect immuno-fluorescence method. Thus; the cultured cells were fixed with cold methanol on a slide glass, reacted with antibody to the HTLV-III-specific antigens, and further with the secondary antibody (having fluorescent label). The results are shown in FIGS. 9-29, wherein, , and show the controls without virus; , and show the infection experiments with HTLV-III. The cell growth is indicated in number of cells, the viability (%) in number of viable cells×100/number of total cells, and the infected cell rate (%) in number of fluorescent-positive cells×100/number of total cells.
In order to examine the correlation between the anti-AIDS virus activity and the molecular structure (especially, molecular weight and S-content or number of sulfate group in this case) of various test substances including those used in Examples 1-7, the anti-AIDS activities were evaluated for the various naturally occurring polysaccharides, polysaccharides having sulfate group, mucopolysaccharides, mucopolysaccharide sulfate, and mucopolysaccharide polysulfate. Further, similar experiments were carried out with various other sulfates which were synthetically obtained. The experimental procedures employed are identical to that in preceding experiments. The cultured MT-4 cells were infected with HTLV-III and the inhibitory effects of various test subsutances on the infected cell rate (number of fluorescent cell×100/ total cell, %) were determined at 6th day.

[3] = Acute toxicity (LD50) in mice; assay type: in vivo
MT-4 cells = assay: Cytotoxicity, proliferation and viability of MT-4 cells without virus; assay type: cell-based, human; conditions: no virus
Protocol: MT-4 cells were cultured with or without 1-100 μg/ml of each test substance which is the same as in Example 1 and 3 and the proliferation and viability of cells were recorded.
Without the virus, MT-4 cells were cultured in the same manner as in Example 4 except the test sample was heparin, and proliferation and viability of cells were recorded.

[4] = test system: reverse transcriptase (authentic sample) derived from Avian Myeloblastosis Virus; assay: Inhibition of reverse transcriptase activity (AMV); assay type: biochemical; conditions: AMV enzyme; 1, 0.1 and 0.01 μg/ml
Protocol: Test substances were assayed for inhibition against the enzyme activity of reverse transcriptase (authentic sample) derived from Avian Myeloblastosis Virus (abbrev. AMV), a kind of retrovirus. Five microliters of […] (template RNA), 4 μl of (dT)12-18 (primer DNA), and 1 μl of water were mixed with 5 μl of 0.5M Tris-CHl (pH 8.4) including 0.1% triton X-100, 5 μl of […], 5 μl of 20 mM-DDT, 5 μl of water, and [^3 H]-TTP (tritium labeled thymidine triphosphate). To this mixture, test substances in solutions (final concentrations: 1, 0.1, and 0.01 μg/ml, 5 μl) or buffer solutions (control, 5 μl) at various doses were added. Then, 5 μl (one unit) of the authentic reverse transcriptase derived from AMV was added and the reaction mixture was incubated at 37° C. for 30 minutes. The reaction was stopped by addition of trichloroacetic acid, and after filtering the reaction mixture, the radioactivity of the polymerized (^3 H-T)n retained on the filter was measured using a liquid scintillation counter. As the test substances, sodium dextran sulfate (molecular weight: 5000), same (molecular weight: 8000), same (molecular weight: 500000), fucoidin, κ-carrageenan, λ-carrageenan, and .iota.-carrageenan were used.
The effects of the test substances on the reverse transcriptase activity of AMV were evaluated by the method described in Example 1.

[5] = 10 μg/ml, 6th day, control 100%
[6] = 100 μg/ml, 6th day, control 100%
[7] = 10 μg/ml, 6th day, control 100%, 8640 min
[8] = 100 μg/ml, 6th day, control 100%, 8640 min
[9] = 1000 μg/ml, 6th day, control 100%

Sodium dextran sulfate
plaque formation ([1]; 100 μg/ml of DS): not detected
inhibition of the formation of plaque ([1]; 1-100 μg/ml): ≥ 90%
Inhibition ([1]; DS 1 μg/ml): 92%
Number of plagues per dish ([1]; DS 1 μg/ml): 14
Inhibition ([1]; DS 5 μg/ml): 93%
Number of plagues per dish ([1]; DS 5 μg/ml): 12
Inhibition ([1]; DS 10 μg/ml): 93%
Number of plagues per dish ([1]; DS 10 μg/ml): 11
Inhibition ([1]; DS 50 μg/ml): 92%
Number of plagues per dish ([1]; DS 50 μg/ml): 13
Inhibition ([1]; DS 100 μg/ml): 96%
Number of plagues per dish ([1]; DS 100 μg/ml): 6
Inhibition ([1]; DS 1000 μg/ml): 100%
Number of plagues per dish ([1]; DS 1000 μg/ml): 0
Inhibition ([2]; DS 0.01 μg/ml): 6%
Number of plaques per dish ([2]; DS 0.01 μg/ml): 33
Inhibition ([2]; DS 0.1 μg/ml): 45%
Number of plaques per dish ([2]; DS 0.1 μg/ml): 19
Number of plaques per dish ([2]; DS 1 μg/ml): 14
Inhibition ([2]; DS 10 μg/ml): 52%
Number of plaques per dish ([2]; DS 10 μg/ml): 17
Inhibition ([2]; DS 100 μg/ml): 54%
Number of plaques per dish ([2]; DS 100 μg/ml): 16
Number of plaques per dish ([2]; DS 500 μg/ml): 0

Chitosan
Infected cell (%) (HTLV-III; [5]): 100%
Infected cell (%) (HTLV-III; [6]): 100%

Hyaluronic acid sulfate
Infected cell (%) (HTLV-III; [5]): 100%
Infected cell (%) (HTLV-III; [6]): 70%

κ-carrageenan [Carrageenan 20%enan 80% + λ]
Infected cell (%) (HTLV-III; [5]): 95%
Infected cell (%) (HTLV-III; [6]): 1%

Dextran sulfate [Dextran sulfate (molecular weight 3,500, S-content 6)]
Infected cell (%) (HTLV-III; [7]): 100%
Infected cell (%) (HTLV-III; [8]): 82%
Infected cell (%) (HTLV-III; [9]): 1%

sodium chondroitin sulfate
acute toxicity (LD50) ([3]; intraperitoneally): ≥ 4,000 mg/kg
acute toxicity (LD50) ([3]; orally): ≥ 7,500 mg/kg

Chondroitin-6-sulfate polysulfate
Infected cell (%) (HTLV-III; [5]): 2%
Infected cell (%) (HTLV-III; [6]): 1%
anti-AIDS virus activity (HTLV-III; 6th day): particularly strong anti-AIDS virus activities

N--acetylglucosamine polysulfate
Infected cell (%) (HTLV-III; [5]): 100%
Infected cell (%) (HTLV-III; [6]): 100%
Infected cell (%) (HTLV-III; [9]): 100%

Chondroitin-4-sulfate polysulfate
Infected cell (%) (HTLV-III; [5]): 2%
Infected cell (%) (HTLV-III; [6]): 1%
anti-AIDS virus activity (HTLV-III; 6th day): particularly strong anti-AIDS virus activities

Sodium dextran sulfate [Sodium dextran sulfate (molecular weight: 5000, S-content: 1]
Infected cell (%) (HTLV-III; 10 μg/ml, 6th day; control 100%; S-content ≈13), 8640 min): 18%
Infected cell (%) (HTLV-III; [6]): 0%
Cell number (MT-4 cells; 1 μg/ml): 123 × 10^4 cells/ml
Cell number (MT-4 cells; 10 μg/ml): 127 × 10^4 cells/ml
Viability (MT-4 cells; 10 μg/ml): 92%
Cell number (MT-4 cells; 100 μg/ml): 121 × 10^4 cells/ml
Viability (MT-4 cells; 100 μg/ml): 93%

Chondroitin-4-sulfate
Infected cell (%) (HTLV-III; [5]): 90%
Infected cell (%) (HTLV-III; [6]): 80%

pectin
anti-AIDS virus activity (HTLV-III; 6th day): neither methylcellulose showed any anti-AIDS virus activities

Dextran [Dextran (molecular weight 9,000)]
Infected cell (%) (HTLV-III; [5]): 100%
Infected cell (%) (HTLV-III; [6]): 100%

dextran sulfate
anti-AIDS virus activity (HTLV-III; 6th day): particularly strong anti-AIDS virus activities

OC[C@H]1O[C@H](OC[C@H]2O[C@H](O[C@]3(CO)O[C@H](CO)[C@@H](O)[C@@H]3O)[C@H](O)[C@@H](O)[C@@H]2O)[C@H](O)[C@@H](O)[C@H]1O [raffinose]
anti-AIDS virus activity (HTLV-III; 6th day): neither methylcellulose showed any anti-AIDS virus activities

O=C[C@H](O)[C@@H](O)[C@H](O)[C@H](O)COS(=O)(=O)O [Glucose-6-sulfate]
Infected cell rate (% of total cells) at 10 µg/mL (HTLV-III; Human immunodeficiency virus 1, MT4, 144 h, 10 μg/ml, 6th day, control 100%): 100%
Infected cell rate (% of total cells) at 100 µg/mL (HTLV-III; Human immunodeficiency virus 1, MT4, 144 h, 100 μg/ml, 6th day, control 100%): 100%
Infected cell rate (% of total cells) at 1000 µg/mL (HTLV-III; Human immunodeficiency virus 1, MT4, 144 h, 1000 μg/ml, 6th day, control 100%): 100%

Keratan sulfate
Infected cell (%) (HTLV-III; [5]): 100%
Infected cell (%) (HTLV-III; [6]): 60%

Chitin
Infected cell (%) (HTLV-III; [5]): 100%
Infected cell (%) (HTLV-III; [6]): 100%

Sodium dextran sulfate [Sodium dextran sulfate (molecular weight: 500,000 S-content:]
Infected cell (%) (HTLV-III; 10 μg/ml, 6th day; control 100%; S-content ≈16), 8640 min): 20%
Infected cell (%) (HTLV-III; [6]): 0%

λ-Carrageenan
Infected cell (%) (HTLV-III; [5]): 3%
Infected cell (%) (HTLV-III; [6]): 1%
anti-AIDS virus activity (HTLV-III; 6th day): particularly strong anti-AIDS virus activities

Dextran sulfate [Dextran sulfate (molecular weight 8,000, S-content ≈14)]
Infected cell (%) (HTLV-III; [7]): 25%
Infected cell (%) (HTLV-III; [8]): 0%

Chitin sulfate
Infected cell (%) (HTLV-III; [5]): 100%
Infected cell (%) (HTLV-III; [6]): 81%

colominic acid
anti-AIDS virus activity (HTLV-III; 6th day): neither methylcellulose showed any anti-AIDS virus activities

methylcellulose
anti-AIDS virus activity (HTLV-III; 6th day): neither methylcellulose showed any anti-AIDS virus activities

Alginic acid sulfate
Infected cell (%) (HTLV-III; [5]): 7%
Infected cell (%) (HTLV-III; [6]): 4%
anti-AIDS virus activity (HTLV-III; 6th day): particularly strong anti-AIDS virus activities

Chondroitin-6-sulfate
Infected cell (%) (HTLV-III; [5]): 100%
Infected cell (%) (HTLV-III; [6]): 100%

Hyaluronic acid
Infected cell (%) (HTLV-III; [5]): 100%
Infected cell (%) (HTLV-III; [6]): 100%

Fucoidin
Infected cell (%) (HTLV-III; [5]): 32%
Infected cell (%) (HTLV-III; [6]): 1%

Alginic acid
Infected cell (%) (HTLV-III; [5]): 100%
Infected cell (%) (HTLV-III; [6]): 100%

inulin
anti-AIDS virus activity (HTLV-III; 6th day): neither methylcellulose showed any anti-AIDS virus activities

.iota.-Carrageenan
Infected cell (%) (HTLV-III; [5]): 100%
Infected cell (%) (HTLV-III; [6]): 31%

Agarose
Infected cell (%) (HTLV-III; [5]): 100%
Infected cell (%) (HTLV-III; [6]): 100%

keratan polysulfate
reverse transcriptase inhibition activity [4]: stronger activity than the natural substances

Chondroitin
Infected cell (%) (HTLV-III; [5]): 100%
Infected cell (%) (HTLV-III; [6]): 100%

Glucose-polysulfate
Infected cell (%) (HTLV-III; [5]): 100%
Infected cell (%) (HTLV-III; [6]): 100%
Infected cell (%) (HTLV-III; [9]): 100%

Dermatan sulfate
Infected cell (%) (HTLV-III; [5]): 100%
Infected cell (%) (HTLV-III; [6]): 80%

Chitosan sulfate
Infected cell (%) (HTLV-III; [5]): 1%
Infected cell (%) (HTLV-III; [6]): 1%
anti-AIDS virus activity (HTLV-III; 6th day): particularly strong anti-AIDS virus activities

Heparitin sulfate
Infected cell (%) (HTLV-III; [5]): 100%
Infected cell (%) (HTLV-III; [6]): 90%
